Test results taken from US3959468A, “Antibiotic equisetin and method of production” (The United States of America as represented by the …, priority 1974, dated 1976).
Values after ≈ are worked out from the molar mass of the structure shown. Read-outs that look alike come from different tables or passages of the source.

How the values were obtained:
[1] = system: bacteria; conditions: cited from earlier work
[2] = system: Staphylococcus aureus; assay: Minimum inhibitory concentration, agar streak test on TGY agar (S. aureus); type: cell-based; conditions: S. aureus strains, Table 1 footnote 1 (explains the dashes), read-out: not inhibited by (isoniazid per ml. medium)
Description: (§1) Minimum inhibitory concentrations for microorganisms. The F. equiseti NRRL 5537 antibiotic was diluted in ethanol. Streptomycin sulfate and isoniazid were diluted in water. Amounts up to 1 ml. were added to TGY agar to provide the desired double dilution test concentrations. Minimum inhibitory concentrations of the antimicrobial agents were determined by streaking a loopful of standardized suspensions of 24- to 48-hr. cultures of selected microorganisms onto the surface of 20 ml. of the modified TGY agar in a standard petri dish. Microorganisms were cultured on TGY agar slants and diluted with TGY broth to yield a transmittance of about 90% at 600 nm. in a Spectronic-20 spectrophotometer. All cultures grew on control plates containing 1 ml. ethanol per 100 ml. TGY agar. Bacteria were incubated at 37° C. and the fungi at room temperature.

[3] = system: Neisseria perflava; assay: Minimum inhibitory concentration, agar streak test on TGY agar (N. perflava); type: cell-based; conditions: N. perflava strains, Table 1 footnote 1 (explains the dashes), read-out: not inhibited by (isoniazid per ml. medium)
Description: as §1

[4] = system: M. smegmatis; assay: Minimum inhibitory concentration, agar streak test on TGY agar (M. smegmatis); type: cell-based; conditions: Mycolicibacterium smegmatis, NRRLB612, NRRL B-612, 37° C., 24 and 48 hr., read-out: Antimicrobial agent MIC
Description: as §1

[5] = system: M. rhodochrus; assay: Minimum inhibitory concentration, agar streak test on TGY agar (M. rhodochrus); type: cell-based; conditions: NRRL B-2141, 37° C., 24 and 48 hr., read-out: Antimicrobial agent MIC
Description: as §1

[6] = system: Mycobacterium phlei; assay: Minimum inhibitory concentration, agar streak test on TGY agar (M. phlei); type: cell-based; conditions: Mycolicibacterium phlei, TGY agar, 37° C., 24 and 48 hr., read-out: Antimicrobial agent MIC
Description: as §1

[7] = system: Bacillus subtilis; assay: Minimum inhibitory concentration, agar streak test on TGY agar (B. subtilis); type: cell-based
Description: as §1

Compound | antibacterial properties [1] | MIC [2] | MIC [3] | MIC [4] | MIC [5] | MIC ([6]; NRRLB609, NRRL B-609) | MIC ([6]; NRRLB610, NRRL B-610) | MIC ([6]; NRRLB4051, NRRL B-4051) | MIC ([7]; B. subtilis strains, Table 1 footnote 1 (explains the dashes), read-out: not inhibited by (isoniazid per ml. medium)) | MIC ([7]; NRRLB543, NRRL B-543, TGY agar, 37° C., 24 and 48 hr., read-out: Antimicrobial agent MIC)
O=C1C=CCO1 [butenolide] | either lack or only exhibit weak antibacterial properties | – | – | – | – | – | – | – | – | –
fusariogenin | either lack or only exhibit weak antibacterial properties | – | – | – | – | – | – | – | – | –
NNC(=O)c1ccncc1 [Isoniazid] | – | > 128 µg/mL | > 128 µg/mL | 4 µg/mL (≈ 29.2 µM) | 64 µg/mL (≈ 467 µM) | 4 µg/mL (≈ 29.2 µM) | 4 µg/mL (≈ 29.2 µM) | 4 µg/mL (≈ 29.2 µM) | > 128 µg/mL | 128 µg/mL (≈ 933 µM)
